In patent US10266548B2, “Substituted benzylindazoles for use as Bub1 kinase inhibitors in the treatment of hyperproliferative diseases” (Bayer Intellectual Property GmbH, priority 2011, dated 2019) one finds IC50 data, which are given here for 29 compounds.

pIC50: −log10 of the molar value. Structures can show the parent of a compound that is named as a salt. Where two headings read alike, the source gives them in different places.

Assay [1] concerns the target catalytic domain of human Bub1 (amino acids 704-1085) (Homo sapiens (Human), UniProt O43683). The assay is described as follows: Bub1 kinase assay (TR-FRET). Conditions: 10 μM ATP, 1 μM peptide substrate; read-out: Biological Assay 1: Bub1 kinase assay median IC50. Type of assay: biochemical. An outline of the steps: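 Phosphoserine product detected by TR-FRET (Eu-labeled anti-mouse IgG/anti-phosphoserine antibody to streptavidin-XL665) after 1 h at 22 °C. IC50 from 4-parameter logistic fit.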

The next assay deals with HeLa cells. The assay is described as follows: Proliferation assay (HeLa cell line). The class given is cell-based. As to conditions: read-out: Biological Assay 2: Proliferation assay (HeLa cell line) median IC50.
The mark [2] stands for this setting: Homo sapiens, 96 h, 4 days, crystal violet.

catalytic domain of human Bub1 (amino acids 704-1085), sequence (O43683 704-1085): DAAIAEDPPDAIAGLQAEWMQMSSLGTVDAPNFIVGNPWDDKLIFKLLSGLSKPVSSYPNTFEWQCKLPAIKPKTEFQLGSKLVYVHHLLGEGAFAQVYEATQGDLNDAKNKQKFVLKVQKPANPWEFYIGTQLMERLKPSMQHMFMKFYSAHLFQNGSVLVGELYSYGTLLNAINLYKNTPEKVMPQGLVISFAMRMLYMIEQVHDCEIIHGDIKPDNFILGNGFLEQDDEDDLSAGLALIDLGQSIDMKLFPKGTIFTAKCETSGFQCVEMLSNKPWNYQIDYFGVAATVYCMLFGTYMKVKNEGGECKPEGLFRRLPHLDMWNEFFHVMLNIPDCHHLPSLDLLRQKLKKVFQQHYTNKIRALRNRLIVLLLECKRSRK

`COc1cnc(-c2nn(Cc3cccc(CCO)c3)c3ccccc23)nc1Nc1ccncc1` [Example 8-2, 2-[3-({3-[5-methoxy-4-(pyridin-4-ylamino)pyrimidin-2-yl]-1H-indazol-1-yl}methyl)phenyl] ethanol]: the pIC50 in assay [1] was 7.68; in the assay on HeLa cells (setting [2]) it was 5.26.
For `COc1cnc(-c2nn(Cc3cccc(C(C)(C)CO)c3)c3ccccc23)nc1Nc1ccncc1` [Example 8-3, 2-[3-({3-[5-methoxy-4-(pyridin-4-ylamino)pyrimidin-2-yl]-1H-indazol-1-yl}methyl)phenyl]-2-methylpropan-1-ol], in that order: 6.62 and ≤ 5.00.
As to `CCOc1cc(F)c(Cn2nc(-c3ncc(OC)c(Nc4ccncc4CO)n3)c3ccccc32)c(F)c1` [Example 8-4, [4-({2-[1-(4-ethoxy-2,6-difluorobenzyl)-1H-indazol-3-yl]-5-methoxypyrimidin-4-yl}amino)pyrimidin-3-yl]methanol], the pIC50 is 7.89 in assay [1] and 5.30 with HeLa cells (4 days, crystal violet).
As for `COc1cnc(-c2nn(Cc3cccc(CC(C)(C)O)c3)c3ccccc23)nc1Nc1ccncc1` [Example 9-2, 1-[3-({3-[5-methoxy-4-(pyridin-4-ylamino)pyrimidin-2-yl]-1H-indazol-1-yl}methyl)phenyl]-2-methylpropan-2-ol], the pIC50 in assay [1] is 7.68; in the assay on HeLa cells (setting [2]) it was ≤ 5.00.
For `COc1cnc(-c2nn(Cc3c(Cl)ccc(C(C)(C)O)c3Cl)c3ccccc23)nc1Nc1ccncc1` [Example 9-3, 2-[2,4-dichloro-3-({3-[5-methoxy-4-(pyridin-4-ylamino)pyrimidin-2-yl]-1H-indazol-1-yl}methyl)phenyl] propan-2-ol], the pIC50 in assay [1] was 7.64; with HeLa cells (Homo sapiens, 96 h) it was 5.15.
Consider `CCOc1cc(F)c(Cn2nc(-c3ncc(OC(F)F)c(Nc4ccncc4)n3)c3ccccc32)c(F)c1` [Example 10-1, 5-(difluoromethoxy)-2-[1-(4-ethoxy-2,6-difluorobenzyl)-1H-indazol-3-yl]-N-(pyridin-4 yl)pyrimidin-4-amine], for which the pIC50 is 7.92 in assay [1] and 5.70 in the assay with HeLa cells (setting [2]).
In the same order, the values of `CCOc1cc(F)c(Cn2nc(-c3ncc(O)c(N(c4ccncc4)C(F)F)n3)c3ccccc32)c(F)c1` [Example 10-3, 4-[(difluoromethyl) (pyridin-4-yl)amino]-2-[1-(4-ethoxy-2,6-difluorobenzyl)-1H-indazol-3-yl]pyrimidin-5-ol] are 6.44 and 5.02.
`COc1ccc(Cn2nc(-c3ncc(OCC(F)(F)F)c(Nc4ccncc4)n3)c3ccccc32)cc1` [Example 11-1, 2-[1-(4-methoxybenzyl)-1H-indazol-3-yl]-N-(pyridin-4-yl)-5-(2,2,2-trifluoroethoxy)pyrimidin-4-amine]: the pIC50 in assay [1] is 7.74; with HeLa cells (Homo sapiens, 96 h), 5.09.
Turning to `CCOc1cc(F)c(Cn2nc(-c3ncc(OCC(F)(F)F)c(Nc4ccncc4)n3)c3ccccc32)c(F)c1` [Example 11-2, 2-[1-(4-ethoxy-2,6-difluorobenzyl)-1H-indazol-3-yl]-N-(pyridin-4-yl)-5-(2,2,2-trifluoroethoxy) pyrimidin-4-amine], the pIC50 in assay [1] is 8.00; with HeLa cells (setting [2]), ≤ 5.00.
With `OC[C@@H](O)COc1cnc(-c2nn(Cc3ccccc3F)c3ccccc23)nc1Nc1ccncc1` [Example 12-2, (2R)-3-({2-[1-(2-fluorobenzyl)-1H-indazol-3-yl]-4-(pyridin-4-ylamino)pyrimidin-5-yl}oxy)propane-1,2-diol], the pIC50 in assay [1] is 8.34; with HeLa cells (Homo sapiens, 96 h) it was ≤ 5.00.
`OC[C@H](O)COc1cnc(-c2nn(Cc3ccccc3F)c3ccccc23)nc1Nc1ccncc1` [Example 12-3]: the pIC50 is 8.32 in assay [1] and ≤ 5.00 in the assay on HeLa cells (4 days, crystal violet).
With `OCCOc1cnc(-c2nn(Cc3ccccc3F)c3ccccc23)nc1Nc1ccncc1` [Example 13-2, 2-({2-[1-(2-fluorobenzyl)-1H-indazol-3-yl]-4-(pyridin-4-ylamino)pyrimidin-5-yl}oxy)ethanol], the pIC50 in assay [1] is 8.14; with HeLa cells (Homo sapiens, 96 h), 5.02.
For `CCOC(=O)c1cnccc1Nc1nc(-c2nn(Cc3ccccc3F)c3ccccc23)ncc1OCCO` [Example 13-3, ethyl 4-({2-[1-(2-fluorobenzyl)-1H-indazol-3-yl]-5-(2-hydroxyethoxy)pyrimidin-4-yl}amino)pyridine-3-carboxylate], in that order: 7.77 and ≤ 5.00.
`CNC(=O)c1cnccc1Nc1nc(-c2nn(Cc3ccccc3F)c3ccccc23)ncc1OCCO` [Example 13-4, 4-({2-[1-(2-fluorobenzyl)-1H-indazol-3-yl]-5-(2-hydroxyethoxy)-pyrimidin-4-yl}amino)-N-methylpyridine-3-carboxamide]: the pIC50 is 8.33 in assay [1] and 5.10 with HeLa cells (setting [2]).
For `NC(=O)c1cnccc1Nc1nc(-c2nn(Cc3ccccc3F)c3ccccc23)ncc1OCCO` [Example 13-5, 4-({2-[1-(2-fluorobenzyl)-1H-indazol-3-yl]-5-(2-hydroxyethoxy)pyrimidin-4-yl}amino)pyridine-3-carboxamide], in that order: 8.19 and ≤ 5.00.
On to `O=C(OCCO)c1cnccc1Nc1nc(-c2nn(Cc3ccccc3F)c3ccccc23)ncc1OCCO` [Example 13-6, 2-hydroxyethyl 4-({2-[1-(2-fluorobenzyl)-1H-indazol-3-yl]-5-(2-hydroxyethoxy)pyrimidin-4-yl}amino)pyridine-3-carboxylate], for which the results for the pIC50 (in assay [1]; with HeLa cells (setting [2])) were 8.07 and ≤ 5.00, respectively.
As for `COc1ccc(Cn2nc(-c3ncc(OC4CC4)c(Nc4ccncc4)n3)c3ccccc32)cc1` [Example 14-1, 5-(cyclopropyloxy)-2-[1-(4-methoxybenzyl)-1H-indazol-3-yl]-N-(pyridin-4-yl)pyrimidin-4-amine], the pIC50 in assay [1] is 5.48; in the assay with HeLa cells (Homo sapiens, 96 h), ≤ 5.00.
For `OC[C@H](O)COc1cnc(-c2nn(Cc3ccccc3F)c3ccccc23)nc1Nc1ccncc1` [Example 15-2, (2S)-3-({2-[1-(2-fluorobenzyl)-1H-indazol-3-yl]-4-(pyridin-4-ylamino)pyrimidin-5-yl}oxy)propane-1,2-diol hydrochloride (1:1)], in that order: 8.26 and ≤ 5.00.
`CCOc1cc(F)c(Cn2nc(-c3ncc(OCCO)c(Nc4ccncc4)n3)c3ccccc32)c(F)c1` [Example 15-3, 2-({2-[1-(4-ethoxy-2,6-difluorobenzyl)-1H-indazol-3-yl]-4-(pyridin-4-ylamino)pyrimidin-5-yl}oxy)ethanol hydrochloride (1:1)]: the pIC50 in assay [1] is 8.24; with HeLa cells (4 days, crystal violet), 5.77.
For `COc1cnc(-c2nn(Cc3c(Cl)cccc3Cl)c3ccccc23)nc1Nc1ccncc1` [Example 15-4, 2-[1-(2,6-dichlorobenzyl)-1H-indazol-3-yl]-5-methoxy-N-(pyridin-4-yl)pyrimidin-4-amine hydrochloride (1:1)], the pIC50 in assay [1] was 8.14; with HeLa cells (Homo sapiens, 96 h), ≤ 5.00.
In the case of `COc1cnc(-c2nn(Cc3c(Cl)ccc(CO)c3Cl)c3ccccc23)nc1Nc1ccncc1` [Example 15-5, [2,4-dichloro-3-({3-[5-methoxy-4-(pyridin-4-ylamino)pyrimidin-2-yl]-1H-indazol-1-yl}methyl)phenyl] methanol hydrochloride (1:1)], the pIC50 in assay [1] is 7.92; in the assay with HeLa cells (4 days, crystal violet) it was 5.00.
For the compound `CCOc1cc(F)c(Cn2nc(-c3nccc(N(C(C)=O)c4ccncc4)n3)c3ccccc32)c(F)c1` [Example 16-1, N-{2-[1-(4-ethoxy-2,6-difluorobenzyl)-1H-indazol-3-yl]pyrimidin-4-yl}-N-(pyridin-4-yl)acetamide], the pIC50 in assay [1] is 6.77; with HeLa cells (setting [2]), 5.55.
In the same order, the values of `CCOc1cc(F)c(Cn2nc(-c3nccc(N(C(=O)COC)c4ccncc4)n3)c3ccccc32)c(F)c1` [Example 16-2, N-{2-[1-(4-ethoxy-2,6-difluorobenzyl)-1H-indazol-3-yl]pyrimidin-4-yl}-2-methoxy-N-(pyridin-4-yl)acetamide] are 7.64 and 5.46.
Take `CCOc1cc(F)c(Cn2nc(-c3nccc(N(C(=O)C4CCOCC4)c4ccncc4)n3)c3ccccc32)c(F)c1` [Example 16-3, N-{2-[1-(4-ethoxy-2,6-difluorobenzyl)-1H-indazol-3-yl]pyrimidin-4-yl}-N-(pyridin-4-yl)tetrahydro-2H-pyran-4-carboxamide]: the pIC50 is 6.68 in assay [1] and 5.39 with HeLa cells (Homo sapiens, 96 h).
As to `CCOc1cc(F)c(Cn2nc(-c3nccc(N(C(=O)COCCOC)c4ccncc4)n3)c3ccccc32)c(F)c1` [Example 16-4, N-{2-[1-(4-ethoxy-2,6-difluorobenzyl)-1H-indazol-3-yl]pyrimidin-4-yl}-2-(2-methoxyethoxy) N-(pyridin-4-yl)acetamide], the pIC50 in assay [1] is 7.70; in the assay on HeLa cells (setting [2]) it was 5.57.
For `CCOc1cc(F)c(Cn2nc(-c3nccc(N(CCO)c4ccncc4)n3)c3ccccc32)c(F)c1` [Example 17-1, 2-[{2-[1-(4-ethoxy-2,6-difluorobenzyl)-1H-indazol-3-yl]pyrimidin-4-yl}(pyridin-4-yl)amino]ethanol], in that order: 6.77 and ≤ 5.00.
For `CCOc1cc(F)c(Cn2nc(-c3nccc(N(CC4(CO)COC4)c4ccncc4)n3)c3ccccc32)c(F)c1` [Example 17-2], the pIC50 in assay [1] was 5.62; in the assay with HeLa cells (4 days, crystal violet) it was ≤ 5.00.
`COc1cnc(-c2nn(Cc3c(F)cc(Br)cc3OCC(F)(F)F)c3ccccc23)nc1Nc1ccncc1` [Example 18-1, 2-{1-[4-bromo-2-fluoro-6-(2,2,2-trifluoroethoxy)benzyl]-1H-indazol-3-yl}-5-methoxy-N-(pyridin-4-yl)pyrimidin-4-amine]: the pIC50 was 7.80 in assay [1] and 5.85 in the assay on HeLa cells (setting [2]).
With `COc1cnc(-c2nn(Cc3c(OCC(F)(F)F)cc(Br)cc3OCC(F)(F)F)c3ccccc23)nc1Nc1ccncc1` [Example 18-2], the pIC50 in assay [1] is 5.55; in the assay on HeLa cells (4 days, crystal violet) it was 5.46.
